As usually defined, the IC50 is the midpoint of a concentration-inhibition curve. Read a low IC50 as higher potency.

Assay [1] addresses Integrin alpha-IIb/beta-3 (Homo sapiens, UniProt P05106+P08514). Description: Inhibition of fibrinogen binding to platelet glycoprotein alpha IIb beta-3 integrin in ELISA. In general terms: ELISA stands for enzyme-linked immunosorbent assay.
The species entered for another assay is Cavia porcellus. As to the kind of experiment: Compound was tested for inhibition of ADP induced platelet aggregation in guinea pig. The class given is functional.
The species named for the next assay is Homo sapiens. Description: Compound was tested for inhibition of ADP induced platelet aggregation in human platelet-rich plasma. The assay is classed as functional.

Integrin alpha-IIb/beta-3, sequence (P05106 27-788 limits assumed): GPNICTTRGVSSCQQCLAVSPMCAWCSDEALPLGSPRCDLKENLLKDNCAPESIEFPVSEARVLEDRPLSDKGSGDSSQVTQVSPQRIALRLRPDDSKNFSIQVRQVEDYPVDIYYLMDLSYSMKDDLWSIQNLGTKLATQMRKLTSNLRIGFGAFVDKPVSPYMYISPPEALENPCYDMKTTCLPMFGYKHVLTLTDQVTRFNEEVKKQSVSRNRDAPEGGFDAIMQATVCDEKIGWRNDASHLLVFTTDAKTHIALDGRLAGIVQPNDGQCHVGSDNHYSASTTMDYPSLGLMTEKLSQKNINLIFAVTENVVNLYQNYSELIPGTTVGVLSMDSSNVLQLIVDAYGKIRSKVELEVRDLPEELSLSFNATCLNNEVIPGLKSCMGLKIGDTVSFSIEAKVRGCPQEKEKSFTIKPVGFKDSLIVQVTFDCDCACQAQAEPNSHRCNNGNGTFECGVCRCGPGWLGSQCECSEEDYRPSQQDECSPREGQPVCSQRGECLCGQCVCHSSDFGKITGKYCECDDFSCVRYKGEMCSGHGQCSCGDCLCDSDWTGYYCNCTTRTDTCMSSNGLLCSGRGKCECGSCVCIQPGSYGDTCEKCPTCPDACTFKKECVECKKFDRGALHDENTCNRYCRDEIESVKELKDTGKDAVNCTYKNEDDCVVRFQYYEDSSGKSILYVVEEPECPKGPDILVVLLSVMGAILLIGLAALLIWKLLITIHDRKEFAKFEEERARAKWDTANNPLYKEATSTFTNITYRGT
Integrin alpha-IIb/beta-3, sequence (P08514 32-887 limits assumed): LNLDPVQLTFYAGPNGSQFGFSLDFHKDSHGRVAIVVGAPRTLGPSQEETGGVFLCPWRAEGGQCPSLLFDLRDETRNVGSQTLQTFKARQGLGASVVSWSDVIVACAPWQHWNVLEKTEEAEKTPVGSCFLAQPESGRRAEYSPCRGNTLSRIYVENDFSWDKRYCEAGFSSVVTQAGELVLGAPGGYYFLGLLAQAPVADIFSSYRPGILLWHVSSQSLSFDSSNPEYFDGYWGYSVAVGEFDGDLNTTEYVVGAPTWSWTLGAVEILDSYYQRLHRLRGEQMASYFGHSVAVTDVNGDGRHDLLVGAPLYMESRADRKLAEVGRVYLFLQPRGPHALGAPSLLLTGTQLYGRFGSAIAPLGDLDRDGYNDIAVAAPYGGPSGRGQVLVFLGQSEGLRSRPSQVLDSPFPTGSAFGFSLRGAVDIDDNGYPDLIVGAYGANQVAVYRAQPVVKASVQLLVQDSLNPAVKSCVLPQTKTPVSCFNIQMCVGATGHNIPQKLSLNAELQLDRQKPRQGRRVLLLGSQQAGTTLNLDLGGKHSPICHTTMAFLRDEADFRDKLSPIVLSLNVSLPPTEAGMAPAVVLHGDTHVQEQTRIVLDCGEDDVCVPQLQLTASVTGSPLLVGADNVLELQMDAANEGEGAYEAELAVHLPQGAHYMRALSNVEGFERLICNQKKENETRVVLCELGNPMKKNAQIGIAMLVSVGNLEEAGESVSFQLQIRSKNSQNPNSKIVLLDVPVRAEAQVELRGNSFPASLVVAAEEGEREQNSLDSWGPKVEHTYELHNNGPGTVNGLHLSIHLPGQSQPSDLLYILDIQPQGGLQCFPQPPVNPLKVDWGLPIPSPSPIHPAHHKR
Integrin alpha-IIb/beta-3, sequence (P08514 891-1039 limits assumed): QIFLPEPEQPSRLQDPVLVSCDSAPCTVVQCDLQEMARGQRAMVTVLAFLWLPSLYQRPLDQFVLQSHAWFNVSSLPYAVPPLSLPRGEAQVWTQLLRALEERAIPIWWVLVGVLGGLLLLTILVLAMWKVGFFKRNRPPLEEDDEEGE

In the case of `N=C(N)c1ccc(N2CCN(c3ccc(CC(=O)O)cc3)CC2)cc1`, in assay [1], the IC50 was 1000 nM. Regarding `N=C(N)c1ccc(N2CCN(Cc3cccc(OCC(=O)O)c3)CC2)cc1`, in assay [1], the IC50 was 3980 nM. With `CN(CC(=O)c1ccc(OCC(=O)O)c(OCC(=O)O)c1)C(=O)c1ccc(C(=N)N)cc1`, the IC50 in assay [1] was 1 nM; in the assay filed under Cavia porcellus, 251 nM. Take `N=C(N)c1ccc(N2CCN(C3CCN(CC(=O)O)CC3)CC2)cc1`: the IC50 in assay [1] was 7.94 nM; in the assay listed under Homo sapiens, 631 nM; in the assay filed under Cavia porcellus, 251 nM. In assay [1], `N=C(N)c1ccc(N2CCN(c3ccc(OCCCC(=O)O)cc3)CC2)cc1` showed an IC50 of over 10000 nM. Turning to `N=C(N)c1ccc(CN2CCN(c3ccc(CC(=O)O)cc3)CC2)cc1`, the IC50 in assay [1] is 2510 nM. For `N=C(N)c1ccc(N2CCN(c3ccc(CCC(=O)O)cc3)CC2)cc1`, the IC50 in assay [1] was 25.1 nM. With `N=C(N)c1ccc(N2CCN(c3ccc(OCC(=O)O)cc3)CC2)cc1`, the values for the concentration for half-maximal inhibition (IC50) (in assay [1]; in the assay listed under Homo sapiens; in the assay listed under Cavia porcellus) were 2 nM, 1000 nM and 3160 nM, respectively. Turning to `N=C(N)c1ccc(N2CCN(c3cccc(OCC(=O)O)c3)CC2)cc1`, in assay [1], the concentration for half-maximal inhibition (IC50) is 2000 nM.

Consider `CC(C)(Oc1ccc(N2CCN(c3ccc(C(=N)N)cc3)CC2)cc1)C(=O)O`, for which, in assay [1], the half-inhibitory concentration (IC50) is 1000 nM. Still for that read-out and setting: under `N=C(N)c1ccc(N2CCN(Cc3ccc(CC(=O)O)cc3)CC2)cc1` stands 200 nM; under `N=C(N)c1ccc(CN2CCN(c3cccc(OCC(=O)O)c3)CC2)cc1`, 15800 nM. In turn, `N=C(N)c1ccc(N2CCN(c3cccc(CC(=O)O)c3)CC2)cc1` had an IC50 in assay [1] of 1580 nM.

`N=C(N)c1ccc(CN2CCN(c3cccc(CC(=O)O)c3)CC2)cc1`: the 50% inhibitory concentration (IC50) in assay [1] is 39800 nM. Take `N=C(N)c1ccc(N2CCN(Cc3cccc(CC(=O)O)c3)CC2)cc1`: the IC50 in assay [1] is 1260 nM.

These data come from ChEMBL document CHEMBL1130843, “Design and synthesis of an orally active GPIIb/IIIa antagonist based on a phenylpiperazine scaffold” (Bioorg Med Chem Lett, 1998).
